Source: ChEMBL document CHEMBL1130860, “Thrombin receptor (PAR-1) antagonists. Heterocycle-based peptidomimetics of the SFLLR agonist motif” (Bioorg Med Chem Lett, 1998)
Numbered stars: 1 amine (or outer) side, 2 acyl side, 3 side chain; on linkers, the order of the positions; unused ones are H or OH. Square brackets hold non-standard residues; d marks the D form. Peptide text beside a SMILES is read from it. * marks the point of attachment. ξ: configuration not given here. Phe(4-F)ψ(2,4-Thz) = O=C(c1csc([C@H](Cc2ccc(F)cc2)N[*:1])n1)[*:2]; Phe(4-guanidino) = N=C(N)Nc1ccc(C[C@H](N)C(=O)O)cc1; X1 = COc1ccc(C[C@H](N[*:1])c2nc(C(=O)[*:2])cs2)cc1; Phe(4-F) = N[C@@H](Cc1ccc(F)cc1)C(=O)O; hArg = N=C(N)NCCCC[C@H](N)C(=O)O; Cha = N[C@@H](CC1CCCCC1)C(=O)O; Nphe = O=C(O)CNCc1ccccc1; X2 = O=C(/C=C/c1ccccc1)*; ξV = CC(C)C(N)C(=O)O; Sar = CNCC(=O)O

Assays:
[1] = organism: Homo sapiens; assay: Inhibition of TRAP-6 (SFLLRN-NH2)-induced human gel filtered platelet aggregation (GFP).; format: functional
[2] = target: T1, Proteinase-activated receptor 1 (Homo sapiens, UniProt P25116); assay: Inhibition of [3H]S-(p-F-Phe)-Har-L-Har-KY-NH2 binding to a thrombin receptor (PAR-1) membrane preparation.
T1 sequence (P25116 whole entry): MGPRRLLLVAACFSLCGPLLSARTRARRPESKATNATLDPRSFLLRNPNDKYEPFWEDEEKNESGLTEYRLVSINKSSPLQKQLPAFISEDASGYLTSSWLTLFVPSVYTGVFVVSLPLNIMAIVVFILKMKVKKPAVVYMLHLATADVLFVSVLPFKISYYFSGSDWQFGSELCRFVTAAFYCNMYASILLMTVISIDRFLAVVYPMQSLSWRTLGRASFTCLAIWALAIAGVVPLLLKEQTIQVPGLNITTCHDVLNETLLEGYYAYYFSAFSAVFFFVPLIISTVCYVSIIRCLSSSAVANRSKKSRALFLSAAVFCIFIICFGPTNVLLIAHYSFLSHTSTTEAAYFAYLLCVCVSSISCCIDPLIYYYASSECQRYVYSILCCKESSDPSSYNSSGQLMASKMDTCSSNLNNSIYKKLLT

[3] = organism: Homo sapiens; assay: Inhibition of alpha-thrombin-induced human gel filtered platelet aggregation (GFP).; format: functional

| SMILES | IC50 [1] | IC50 [2] | IC50 [3] |
| --- | --- | --- | --- |
| CC(=O)N[C@@H](Cc1ccc(F)cc1)c1nc(C(=O)N[C@@H](CC2CCCCC2)C(=O)N[C@@H](CCCNC(=N)N)C(=O)NCc2ccccc2)c(C)o1 | 19 µM | 30 µM | 18 µM |
| CNCC(=O)N[C@@H](Cc1ccc(F)cc1)c1nc(C(=O)N[C@@H](CCCNC(=N)N)C(=O)N[C@@H](CCCNC(=N)N)C(=O)N[C@@H](Cc2ccccc2)C(N)=O)cs1 (H-[Sar][Phe(4-F)ψ(2,4-Thz)]RRF-NH2) | – | > 100 µM | – |
| CNCC(=O)N[C@@H](Cc1ccc(F)cc1)c1nc(C(=O)N[C@@H](CC2CCCCC2)C(=O)N[C@@H](CCCN=C(N)N)C(=O)N[C@@H](CC2CCCCC2)C(N)=O)cs1 (H-[Sar][Phe(4-F)ψ(2,4-Thz)][Cha]R[Cha]-NH2) | 6.8 µM | – | 46 µM |
| NCC(=O)N[C@@H](Cc1ccc(F)cc1)c1nc(C(=O)N[C@@H](CC2CCCCC2)C(=O)N[C@@H](CCCN=C(N)N)C(=O)NCc2ccccc2)co1 | 10 µM | 5.4 µM | 17 µM |
| CNCC(=O)N[C@@H](Cc1ccc(F)cc1)c1nc(C(=O)N[C@@H](CCCCN)C(=O)N[C@@H](CCCNC(=N)N)C(=O)NCCc2ccccc2)cs1 | > 100 µM | > 100 µM | > 100 µM |
| CNCC(=O)N[C@@H](Cc1ccc(F)cc1)c1nc(C(=O)N[C@@H](CC2CCCCC2)C(=O)N[C@@H](CCCN=C(N)N)C(=O)NCCc2ccccc2)cs1 | 10 µM | 5.6 µM | 27 µM |
| CNCC(=O)N[C@@H](Cc1ccc(F)cc1)c1nc(C(=O)N[C@@H](CC2CCCCC2)C(=O)N[C@@H](CCCNC(=N)N)C(=O)NCc2ccccc2)c(C)o1 | 18 µM | 5 µM | 23 µM |
| CC(C)C[C@H](NC(=O)[C@H](CC(C)C)NC(=O)[C@H](Cc1ccccc1)NC(=O)[C@@H](N)CO)C(=O)N[C@@H](CCCN=C(N)N)C(=O)N[C@@H](CC(N)=O)C(N)=O | 0.3 µM | 73 µM | – |
| CC[C@H](C)[C@H](N)C(=O)N[C@@H](Cc1ccc(F)cc1)c1nc(C(=O)N(CC(=O)N[C@@H](CCCN=C(N)N)C(=O)N[C@@H](Cc2ccccc2)C(N)=O)Cc2ccccc2)cs1 (H-I[Phe(4-F)ψ(2,4-Thz)][Nphe]RF-NH2) | 80 µM | > 100 µM | > 100 µM |
| CC(C)C[C@H](NC(=O)[C@H](Cc1ccc(NC(=N)N)cc1)NC(=O)[C@H](Cc1ccc(F)cc1)NC(=O)/C=C/c1ccccc1)C(=O)N[C@@H](CCCN=C(N)N)C(=O)N[C@@H](CCCN=C(N)N)C(N)=O (X2-[Phe(4-F)][Phe(4-guanidino)]LRR-NH2) | 0.021 µM | 0.0075 µM | – |
| CNCC(=O)N[C@@H](Cc1ccc(F)cc1)c1nc(C(=O)N[C@@H](CC2CCCCC2)C(=O)N[C@@H](CCCN=C(N)N)C(=O)N[C@@H](Cc2ccccc2)C(N)=O)cs1 | 14 µM | 5.7 µM | 41 µM |
| CC(C)C(N)C(=O)N[C@@H](Cc1ccc(F)cc1)c1nc(C(=O)N[C@@H](CC2CCCCC2)C(=O)N[C@@H](CCCNC(=N)N)C(=O)N[C@@H](Cc2ccccc2)C(N)=O)cs1 (stereo partly drawn) (H-[ξV][Phe(4-F)ψ(2,4-Thz)][Cha]RF-NH2) | – | 2.7 µM | – |
| NCCC(=O)N[C@@H](Cc1ccc(F)cc1)c1nc(C(=O)N[C@@H](CC2CCCCC2)C(=O)N[C@@H](CCCN=C(N)N)C(=O)NCc2ccccc2)co1 | 36 µM | 6.7 µM | > 100 µM |
| CNCC(=O)N[C@@H](Cc1ccc(F)cc1)c1nc(C(=O)N[C@@H](CC2CCCCC2)C(=O)N[C@@H](CCCCN=C(N)N)C(=O)N[C@@H](Cc2ccccc2)C(N)=O)cs1 (H-[Sar][Phe(4-F)ψ(2,4-Thz)][Cha][hArg]F-NH2) | 7.7 µM | – | 59 µM |
| CNCC(=O)N[C@@H](Cc1ccc(F)cc1)c1nc(C(=O)N[C@@H](CC2CCCCC2)C(=O)N[C@@H](CCCN=C(N)N)C(=O)NCc2ccccc2)co1 | 6.6 µM | 1.6 µM | 25 µM |
| CNCC(=O)N[C@@H](Cc1ccc(F)cc1)c1nc(C(=O)N[C@@H](CC2CCCCC2)C(=O)N[C@@H](CCCNC(=N)N)C(=O)NCC(C)c2ccccc2)cs1 (stereo partly drawn) | 16 µM | 24 µM | 40 µM |

| SMILES | IC50 [1] | IC50 [2] | IC50 [3] |
| --- | --- | --- | --- |
| CNCC(=O)N[C@@H](Cc1ccc(F)cc1)c1nc(C(=O)N[C@@H](Cc2ccccc2)C(=O)N[C@@H](CCCN=C(N)N)C(=O)NCc2ccccc2)cs1 | 13 µM | 24 µM | 46 µM |
| CNCC(=O)N[C@@H](Cc1ccc(F)cc1)c1nc(C(=O)N[C@@H](CC2CCCCC2)C(=O)N[C@@H](CCCNC(=N)N)C(=O)N[C@@H](CC2CCCCC2)C(N)=O)cs1 (H-[Sar][Phe(4-F)ψ(2,4-Thz)][Cha]R[Cha]-NH2) | – | 2.7 µM | – |
| NC(=O)[C@H](Cc1ccccc1)NC(=O)[C@H](CCCN=C(N)N)NC(=O)[C@H](CC1CCCCC1)NC(=O)c1csc([C@@H](N)Cc2ccc(F)cc2)n1 | 16 µM | 8 µM | 28 µM |
| CNCC(=O)N[C@@H](Cc1ccc(F)cc1)c1nc(C(=O)N[C@@H](CC2CCCCC2)C(=O)N[C@@H](CCCNC(=N)N)C(=O)NCc2ccccc2)cs1 | 11 µM | 10 µM | 27 µM |
| Cc1oc([C@H](Cc2ccc(F)cc2)NC(=O)C(N)CN)nc1C(=O)N[C@@H](CC1CCCCC1)C(=O)N[C@@H](CCCN=C(N)N)C(=O)NCc1ccccc1 (stereo partly drawn) | 25 µM | 53 µM | 24 µM |
| CNCC(=O)N[C@@H](Cc1ccc(F)cc1)c1nc(C(=O)N[C@@H](CC2CCCCC2)C(=O)N[C@@H](CCCN=C(N)N)C(=O)N[C@@H](Cc2ccc(O)cc2)C(N)=O)cs1 (H-[Sar][Phe(4-F)ψ(2,4-Thz)][Cha]RY-NH2) | 5.5 µM | 4.1 µM | 45 µM |
| COc1ccc(C[C@H](NC(=O)C(N)C(C)C)c2nc(C(=O)N[C@@H](CC3CCCCC3)C(=O)N[C@@H](CCCN=C(N)N)C(=O)N[C@@H](Cc3ccccc3)C(N)=O)cs2)cc1 (stereo partly drawn) (H-[ξV][X1][Cha]RF-NH2) | 9.5 µM | – | 49 µM |
| CNCC(=O)N[C@@H](Cc1ccc(F)cc1)c1nc(C(=O)N2CCCC(C(=O)N[C@@H](CCCNC(=N)N)C(=O)N[C@@H](Cc3ccccc3)C(N)=O)C2)cs1 (stereo partly drawn) | > 100 µM | > 100 µM | > 100 µM |
| CNCC(=O)N[C@@H](Cc1ccc(F)cc1)c1nc(C(=O)N[C@H](CC2CCCCC2)C(=O)N[C@@H](CCCNC(=N)N)C(=O)N[C@@H](Cc2ccccc2)C(N)=O)cs1 | 42 µM | 94 µM | 96 µM |
| CNCC(=O)N[C@@H](Cc1ccccc1)c1nc(C(=O)N[C@@H](CC2CCCCC2)C(=O)N[C@@H](CCCNC(=N)N)C(=O)NCc2ccccc2)c(C)o1 | 36 µM | 60 µM | 45 µM |
| CC[C@H](C)[C@H](N)C(=O)N[C@@H](Cc1ccc(F)cc1)c1nc(C(=O)N[C@@H](CC2CCCCC2)C(=O)N[C@@H](CCCN=C(N)N)C(=O)N[C@@H](Cc2ccccc2)C(N)=O)cs1 (H-I[Phe(4-F)ψ(2,4-Thz)][Cha]RF-NH2) | 4 µM | 3.9 µM | 32 µM |
| CNCC(=O)N[C@@H](Cc1ccc(F)cc1)c1nc(C(=O)N[C@@H](CCCN=C(N)N)C(=O)N[C@@H](CCCN=C(N)N)C(=O)N[C@@H](Cc2ccccc2)C(N)=O)cs1 (H-[Sar][Phe(4-F)ψ(2,4-Thz)]RRF-NH2) | > 100 µM | – | > 100 µM |
| COc1ccc(C[C@H](NC(=O)C(N)C(C)C)c2nc(C(=O)N[C@@H](CC3CCCCC3)C(=O)N[C@@H](CCCNC(=N)N)C(=O)N[C@@H](Cc3ccccc3)C(N)=O)cs2)cc1 (stereo partly drawn) (H-[ξV][X1][Cha]RF-NH2) | – | 8.2 µM | – |
| NCC(=O)N[C@@H](Cc1ccc(F)cc1)c1nc(C(=O)N[C@@H](CC2CCCCC2)C(=O)N[C@@H](CCCN=C(N)N)C(N)=O)co1 | 13 µM | 6.2 µM | 19 µM |
| CC(C)C(N)C(=O)N[C@@H](Cc1ccc(F)cc1)c1nc(C(=O)N[C@@H](CC2CCCCC2)C(=O)N[C@@H](CCCN=C(N)N)C(=O)N[C@@H](Cc2ccccc2)C(N)=O)cs1 (stereo partly drawn) (H-[ξV][Phe(4-F)ψ(2,4-Thz)][Cha]RF-NH2) | 4.6 µM | – | 22 µM |
